Measured values taken from patent publication US9133148B2, “Carbamate compounds and of making and using same” (Abide Therapeutics, Inc., priority 2012, dated 2015).

Columns and labels:
[1] = molecular target: Human MAGL (Homo sapiens (Human), UniProt Q99685); test: Competitive ABPP with recombinant human MAGL expressed in HEK293T cells; format: biochemical
Protocol: (§1) Proteomes (mouse brain membrane fraction or cell lysates) ([…], 1.0 mg/mL total protein concentration) were preincubated with varying concentrations of inhibitors at 37° C. After 30 min, FP-Rh (1.0 μL, 50 μM in DMSO) was added and the mixture was incubated for another 30 min at 37° C. Reactions were quenched with SDS loading buffer (50 μL—4×) and run on SDS-PAGE.
Recombinant Expression of Human MAGL in HEK293T Cells.
Cell lysates were diluted with mock proteomes for use in competitive ABPP experiments.

[2] = molecular target: ABHD6 (Mus musculus (Mouse), UniProt Q8R2Y0); test: In vitro competitive activity-based protein profiling (FP-Rh), mouse ABHD6; format: biochemical; conditions: mouse brain membrane proteome
Protocol: (§2) In Vitro Competitive Activity-Based Protein Profiling.
as §1

[3] = molecular target: MAGL (Mus musculus (Mouse), UniProt O35678); test: In vitro competitive activity-based protein profiling (FP-Rh), mouse MAGL; format: biochemical; conditions: mouse brain membrane proteome
Protocol: as §2, §1

[4] = molecular target: FAAH (Mus musculus (Mouse), UniProt O08914); test: In vitro competitive activity-based protein profiling (FP-Rh), mouse FAAH; format: biochemical; conditions: mouse brain membrane proteome
Protocol: as §2, §1

[5] = molecular target: Mouse brain MAGL (Mus musculus (Mouse), UniProt O35678); test: Mouse brain proteomes from inhibitor treated mice (oral gavage, ABPP of brain MAGL); format: in vivo; conditions: for Mouse brain MAGL (% inhibition at 20 mg/kg, p.o.): 4 h following administration
Protocol: Preparation of Mouse Brain Proteomes from Inhibitor Treated Mice.
Inhibitors were administered to wild-type C57Bl/6J by oral gavage in a vehicle of polyethylene glycol.

Sequence of ABHD6 (Q8R2Y0 whole entry): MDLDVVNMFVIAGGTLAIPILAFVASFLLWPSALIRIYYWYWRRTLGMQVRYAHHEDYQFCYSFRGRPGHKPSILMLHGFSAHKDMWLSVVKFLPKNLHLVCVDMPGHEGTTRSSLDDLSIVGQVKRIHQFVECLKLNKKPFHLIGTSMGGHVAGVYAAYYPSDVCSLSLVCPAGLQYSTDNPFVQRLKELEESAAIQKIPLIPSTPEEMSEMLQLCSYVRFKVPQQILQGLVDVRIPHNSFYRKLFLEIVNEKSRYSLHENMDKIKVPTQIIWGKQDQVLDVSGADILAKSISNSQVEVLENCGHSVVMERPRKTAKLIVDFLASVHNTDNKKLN
Sequence of Human MAGL (Q99685 whole entry): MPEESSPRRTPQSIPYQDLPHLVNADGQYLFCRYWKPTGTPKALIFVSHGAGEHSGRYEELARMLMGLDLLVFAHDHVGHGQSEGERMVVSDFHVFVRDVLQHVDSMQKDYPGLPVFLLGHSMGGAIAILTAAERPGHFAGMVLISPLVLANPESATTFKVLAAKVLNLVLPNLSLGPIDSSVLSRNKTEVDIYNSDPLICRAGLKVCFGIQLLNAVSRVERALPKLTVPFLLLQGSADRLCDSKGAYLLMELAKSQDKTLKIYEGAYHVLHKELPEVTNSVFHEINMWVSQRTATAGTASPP
Sequence of MAGL (O35678 whole entry): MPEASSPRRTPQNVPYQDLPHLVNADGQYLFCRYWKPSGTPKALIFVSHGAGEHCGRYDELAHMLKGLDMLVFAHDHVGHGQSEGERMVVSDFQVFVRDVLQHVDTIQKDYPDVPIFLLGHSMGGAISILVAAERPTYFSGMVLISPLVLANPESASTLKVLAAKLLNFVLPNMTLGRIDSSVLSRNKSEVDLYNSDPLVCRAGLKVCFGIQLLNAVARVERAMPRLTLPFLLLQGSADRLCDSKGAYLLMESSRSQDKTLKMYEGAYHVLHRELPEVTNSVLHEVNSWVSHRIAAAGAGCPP
Sequence of Mouse brain MAGL (O35678 whole entry): as above
Sequence of FAAH (O08914 whole entry): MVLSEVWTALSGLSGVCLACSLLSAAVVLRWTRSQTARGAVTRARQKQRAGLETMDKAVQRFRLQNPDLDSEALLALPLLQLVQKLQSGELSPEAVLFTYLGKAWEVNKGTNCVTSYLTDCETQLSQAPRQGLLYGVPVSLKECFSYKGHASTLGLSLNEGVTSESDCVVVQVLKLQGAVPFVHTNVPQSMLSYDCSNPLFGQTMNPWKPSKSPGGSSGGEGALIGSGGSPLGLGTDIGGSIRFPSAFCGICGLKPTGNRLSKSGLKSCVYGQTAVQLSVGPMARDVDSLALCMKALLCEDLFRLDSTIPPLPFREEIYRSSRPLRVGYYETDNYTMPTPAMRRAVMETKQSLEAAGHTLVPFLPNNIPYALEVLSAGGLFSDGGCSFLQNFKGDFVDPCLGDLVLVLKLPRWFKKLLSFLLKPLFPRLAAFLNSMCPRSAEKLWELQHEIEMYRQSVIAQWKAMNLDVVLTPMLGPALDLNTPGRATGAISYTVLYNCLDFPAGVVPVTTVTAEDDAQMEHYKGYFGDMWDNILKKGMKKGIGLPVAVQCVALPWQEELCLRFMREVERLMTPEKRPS

| SMILES | IC50 ([1]; hMAGL in HEK293T cell lysates) [nM] | IC50 ([2]; competitive ABPP) [nM] | IC50 ([3]; competitive ABPP) [nM] | IC50 ([4]; competitive ABPP) [nM] | Mouse brain MAGL (% inhibition at 20 mg/kg, p.o.) [5] [%] | IC50 ([1]; hMAGL in HEK293T cell lysates (Table 7)) [nM] | IC50 ([2]; competitive ABPP (Table 7)) [nM] | IC50 ([3]; competitive ABPP (Table 7)) [nM] | IC50 ([4]; competitive ABPP (Table 7)) [nM] | ED50 ([5]; po) [mg/kg] |
| --- | --- | --- | --- | --- | --- | --- | --- | --- | --- | --- |
| O=C(OC(C(F)(F)F)C(F)(F)F)N1CCN(C(c2ccc(Br)cc2)c2ccc(Br)cc2)CC1 [Example 2c, 1,1,1,3,3,3-hexafluoropropan-2-yl 4-(bis(4-bromophenyl)methyl)-piperazine-1-carboxylate] | < 100 | > 1000 | 100 to 1000 | > 10000 | 94 | – | – | – | – | – |
| O=C(OC(C(F)(F)F)C(F)(F)F)N1CCN(C(c2ccc3c(c2)OCO3)c2ccc3c(c2)OCO3)CC1 [Example 2d, 1,1,1,3,3,3-hexafluoropropan-2-yl 4-(bis(benzo[d][1,3]dioxol-5-yl)methyl)piperazine-1-carboxylate] | < 100 | 100 to 1000 | < 100 | > 10000 | >95 | – | – | – | – | – |
| O=C(OC(C(F)(F)F)C(F)(F)F)N1CCN(Cc2cccc(Oc3ccccc3)c2)CC1 [Example 3a, 1,1,1,3,3,3-hexafluoropropan-2-yl 4-(3-phenoxybenzyl)piperazine-1-carboxylate] | < 100 | < 100 | < 100 | > 10000 | >95 | – | – | – | – | – |

Continued, values first:

| IC50 ([1]; hMAGL in HEK293T cell lysates) [nM] | IC50 ([2]; competitive ABPP) [nM] | IC50 ([3]; competitive ABPP) [nM] | IC50 ([4]; competitive ABPP) [nM] | Mouse brain MAGL (% inhibition at 20 mg/kg, p.o.) [5] [%] | IC50 ([1]; hMAGL in HEK293T cell lysates (Table 7)) [nM] | IC50 ([2]; competitive ABPP (Table 7)) [nM] | IC50 ([3]; competitive ABPP (Table 7)) [nM] | IC50 ([4]; competitive ABPP (Table 7)) [nM] | ED50 ([5]; po) [mg/kg] | SMILES |
| --- | --- | --- | --- | --- | --- | --- | --- | --- | --- | --- |
| < 100 | < 100 | 100 to 1000 | > 10000 | 93 | – | – | – | – | – | CN(Cc1cccc(-c2cccnc2)c1)C(=O)OC(C(F)(F)F)C(F)(F)F [Example 3g, 1,1,1,3,3,3-hexafluoropropan-2-yl methyl(3-(pyridin-3-yl)benzyl)-carbamate] |
| < 100 | > 1000 | < 100 | > 10000 | >95 | – | – | – | – | – | CC(C)(C)c1ccc(S(=O)(=O)N2CCN(C(=O)OC(C(F)(F)F)C(F)(F)F)CC2)cc1 [Example 4c, 1,1,1,3,3,3-hexafluoropropan-2-yl 4-((4-(tert-butyl)phenyl)sulfonyl)-piperazine-1-carboxylate] |
| – | – | – | – | – | < 100 | 100 to 1000 | < 100 | > 6250 | < 4 | COc1cc(N2CCOCC2)ccc1CN1CCN(C(=O)OC(C(F)(F)F)C(F)(F)F)CC1 [Example 9s, 1,1,1,3,3,3-hexafluoropropan-2-yl 4-(2-methoxy-4-morpholinobenzyl)piperazine-1-carboxylate] |
